Laboratory results as given in patent US20040028749A1, “Treating inflammation and associated complications” (priority 2000, published 2004).

What was measured:
EPO = target: T1, EPO (Sus scrofa, UniProt P80550); assay: Stopped-flow kinetics of NO with EPO compounds I and II; format: biochemical; conditions: 10 μM H2O2
T1 construct: from tissue; host or cells: porcine whole blood (leukocytes/eosinophils)
T1 sequence (P80550 143-704): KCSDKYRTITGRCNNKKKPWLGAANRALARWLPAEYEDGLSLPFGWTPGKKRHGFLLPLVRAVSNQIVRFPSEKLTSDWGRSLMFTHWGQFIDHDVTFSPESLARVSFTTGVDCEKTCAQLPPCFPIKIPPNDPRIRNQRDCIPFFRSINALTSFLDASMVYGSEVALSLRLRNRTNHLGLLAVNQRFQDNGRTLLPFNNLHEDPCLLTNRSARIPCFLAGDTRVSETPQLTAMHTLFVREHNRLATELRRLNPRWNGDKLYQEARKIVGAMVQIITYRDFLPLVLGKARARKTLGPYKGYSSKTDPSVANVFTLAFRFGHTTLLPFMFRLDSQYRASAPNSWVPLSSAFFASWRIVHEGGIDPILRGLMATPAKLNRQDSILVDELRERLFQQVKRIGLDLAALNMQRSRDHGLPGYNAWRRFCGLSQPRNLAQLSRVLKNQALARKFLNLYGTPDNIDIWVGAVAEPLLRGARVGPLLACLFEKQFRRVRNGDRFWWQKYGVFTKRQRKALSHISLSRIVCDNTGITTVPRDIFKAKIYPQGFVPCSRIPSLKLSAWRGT
Protocol: […] EPO was isolated from porcine whole blood obtained fresh at the slaughterhouse as described by Jorg et al. (1982) Biochim Biophys Acta 701:185-191. EPO was assayed by guaiacol oxidation (see Klebanoff et al. (1984) Methods Enzymol. 105:399-403). […] The concentration of the MPO dimer was calculated as half the indicated concentration of heme-like chromophore. Bovine LPO was obtained from Worthington Biochemistry Corporation (Lakewood, N.J.) and used without further purification.
Stopped-flow spectroscopy was used to investigate how NO interacts with intermediate forms of EPO and LPO during steady-state catalysis. […] The time courses for the formation and decay of compound II of both EPO and LPO in the absence of NO were examined by monitoring the absorbance change at 445 nm for EPO and at 430 nm for LPO. For both enzymes, the changes in absorbance that took place in the first 2 seconds of the reactions are shown and are attributed to the buildup of compound II. […] The subsequent decreases in absorbance at 455 and 430 nm observed for both enzymes were also fit to a single-exponential function with a rate constant of 0.005 s^−1 for EPO and 0.0005 s^−1 for LPO. […]
The addition of NO to reaction mixtures of EPO or LPO results in dramatic effects on the rates of compound II buildup, duration, and decay, as assessed by stopped-flow spectroscopy. […]

tracheal rings = assay: NO-mediated relaxation of preconstricted tracheal rings; design: species or system rat; conditions: absence of peroxidases
Source text: Normal rats were sacrificed and their trachea removed. Under the dissecting microscope, each trachea was freed of adventitia and fat tissue. A cylindrical airway segment of 3 mm length was isolated from the midtrachea of each animal and placed in a modified Krebs-Henseleit (KH) solution of the following composition (mM): NaCl, 118.2; NaHCO3, […], 4.6; KH2PO4, 1.2; MgSO4, 1.2; CaCl2 and dextrose, […], with a pH adjusted to 7.4. The solution was continuously aerated with 5% […] balanced with O2. […] Generated forces were continuously monitored and recorded on a rectilinear chart recorder. […]
A cumulative concentration-response curve to bethanecol (3×10^−8 to 10^−3 M) was obtained for each cylinder. The concentration of bethanecol that elicited 50-75% of maximal response (ED 50-75) was determined. […] The percent relaxation from the precontracted state was calculated for each cylinder. The percent relaxation in response to EFS was calculated from the reduction in tension (in grams) in relation to baseline tension in the precontracted state, each tracheal segment serving as its own control (before and after EFS exposure). […]
The effect of peroxidases on the concentration dependence of NO-mediated relaxation of preconstricted tracheal rings was quantified. […]

SMILES: [N]=O [NO, nitric oxide]
- enhancement of rate of EPO compound II accumulation (EPO): ~25 fold
- NO concentration at which relaxation reached a maximum (tracheal rings): ~4 µM
